Test results: PMC6079455, “Discovery of Novel Caeridins from the Skin Secretion of the Australian White's Tree Frog, Litoria caerulea” (International Journal of Genomics, 2018)
Ends that are not written are not given here.

Columns and labels:
E. coli = test: Membrane permeability on E. coli (ONPG / β-galactosidase); assay type: cell-based, Escherichia coli; details: ONPG hydrolysis, absorbance 420 nm, 0-30 min, 37°C, 1 × 10^8 CFU/ml, PBS pH 7.4
Experimental: The membrane permeabilsation of E.coli was determined by measuring the release of β-galactosidase activity from E. coli into the culture medium with ONPG as the substrate. The log-phase E. coli was grown in MHB medium containing 2% lactose at 37°C, and the cells were pelleted. The cell pellets were suspended in 10 mM PBS (pH 7.4) containing 1.5 mM ONPG and diluted to 1 × 10^8 CFU/ml. Aliquots of cells were incubated with different concentrations of peptides at 37°C. Permeabilisation was measured at 420 nm every 2 min from 0 to 30 min, which reflects ONPG influx into the cells working as an indicator of the permeability of the tested peptides.

[1] = tested on: human microvascular endothelial cell line HMEC-1; test: Membrane permeabilisation of HMEC-1 (LDH release); assay type: cell-based; details: 24 h; for LDH release from HMEC-1: relative to lysis buffer
Experimental: The membrane permeabilisation of the human microvascular endothelial cell line, HMEC-1, was evaluated using the Pierce LDH Cytotoxicity Assay Kit (Thermo Fisher Scientific, San Francisco, CA, USA). HMEC-1 cells were cultured in MCDB-131 medium (Life Technology, Paisley, UK) with 10% FBS, 10 ng/ml epidermal growth factor (EGF) (Life Technology, Paisley, UK), 10 mM L-glutamine (Life Technology, Paisley, UK), and 1% penicillin-streptomycin (Sigma-Aldrich, St. Louise, MO, USA), at 37°C under 5% CO2. Cells were seeded in a 96-well plate at 5000 cells per well and cultured overnight to 80% confluency. Then, the cells were treated with different peptide solutions of gradient concentrations from 10^−7 M to 10^−4 M for 24 h at 37°C, 5% CO2, and H2O-treated cells were made as the spontaneous LDH release control. Lysis buffer was added to cells and incubated for 45 min at 37°C, 5% CO2, to produce the lysis buffer-treated cells which were referred to as maximum LDH release control. Then 50 μl of each sample supernatant was transferred to a 96-well flat-bottom plate in triplicate wells, to which 50 μl of reaction mixture was added, incubated, and protected from light at room temperature for 30 min. After addition of 50 μl Stop Solution to each sample well and removal of bubbles present in sample wells, the absorbance at 490 nm and 680 nm was measured. The absorbance values at 680 nm were subtracted from the absorbance values at 490 nm before calculation of the level of LDH release (cytotoxicity). The level of LDH release was calculated as (2) LDH release %=L−L0/L1−L0×100%, where L refers to sample-treated LDH activity, L0 to spontaneous (H2O-treated) LDH activity, and L1 to maximum (lysis buffer-treated) LDH activity.
Data analysis was performed using one-way analysis of variance followed by Dunnett's multiple comparison tests with maximum LDH release control in GraphPad Prism (Version 6.0; GraphPad Software Inc., San Diego, CA, USA).

[2] = tested on: rat urinary bladder smooth muscle; test: Rat urinary bladder smooth muscle test; details: 10^−11 to 10^−6 M
Experimental: (§1) Female Wistar rats (250–300 g) were euthanized by CO2 asphyxiation followed by cervical dislocation under appropriate Home Office (UK) animal licenses. Full urinary bladder and ileum were carefully removed from the abdomen, then placed in cold Kreb's solution (118 mM NaCl, 4.7 mM KCl, 25 mM NaHCO3, 1.15 mM NaH2PO4, 2.5 mM CaCl2, 1.1 mM MgCl2, and 5.6 mM glucose), equilibrated with a carbogen mixture (95% O2, 5% CO2). The prepared smooth muscles linked with transducers were placed in 2 ml capacity organ baths with Kreb's solution flowing through at 2 ml/min and maintained at 37°C with constant bubbling of carbogen gas mixture (95% O2, […]) and equilibrated for 1 h prior to analysis. Then the viability of these smooth muscle preparations was tested by 60 mM KCl. Caeridins were tested at sequential molar concentrations in the range from 10^−6 M to 10^−11 M. Dose-response curves were depicted for each Caeridin on individual smooth muscle preparations (n = 5). Changes in tension of the smooth muscle preparations were detected by pressure transducers connected to a PowerLab System (ADInstruments Pty Ltd.). Data were recorded and calculated to obtain the means of responses and standard error of means (SEM). The dose-response curve of each Caeridin was established using best-fit algorithms through the data analysis package provided by GraphPad Prism (Version 6.0; GraphPad Software Inc., San Diego, CA, USA), and the comparative EC50 value for each peptide was depicted.

horse erythrocytes = test: Haemolytic test; assay type: cell-based; details: 32 μM, horse red blood cells, 37°C, 2 h, relative to 1% Triton X-100
Experimental: The haemolysis of Caeridins was tested on prepared defrinated horse red blood cells (TCS Biosciences Ltd., Buckingham, UK) by incubating equal volumes of peptide solutions with erythrocyte suspensions at 37°C for 2 H. Maximum haemolysis control was included by incubating equal volumes of 1% Triton X-100 (Sigma-Aldrich, St. Louis, MO, USA) with erythrocyte suspensions. Lysis of erythrocytes was detected by the measurement of supernatant absorbance at a wavelength of 550 nm using a Synergy HT plate reader (Biolise BioTek ELx808, Winooski, VT, USA). The level of haemolysis was as calculated as (3) Haemolysis %=A−A0/A1−A0×100%, where A represents the absorbance with peptide treatments, A0 represents the average absorbance in untreated erythrocytes, and A1 represents the average absorbance in the maximum haemolysis control (1% Triton X-100-treated).

S. aureus NCTC10788 = test: Antimicrobial test (broth microdilution); assay type: cell-based, Staphylococcus aureus
Experimental: (§2) The antimicrobial activities were tested by the broth microdilution method and evaluated by the determination of MIC values against different tested microorganisms, the Gram-positive bacteria, S. aureus (NCTC 10788), E. faecalis (NCTC12697), and MRSA (NCTC 12493); the Gram-negative bacterium, E. coli (NCTC 10418); and the yeast, C. albicans (NCYC 1467). The microorganisms were cultured to their log phase in MHB and diluted to 5 × 10^5 CFU/ml then subsequently treated with peptide solutions of gradient concentrations. After incubation at 37°C overnight, the growth of microorganisms was detected at a wavelength of 550 nm using a Synergy HT plate reader (Biolise BioTek ELx808, Winooski, VT, USA). The MICs were determined as the lowest concentration of peptide where […].

E. faecalis NCTC12697 = test: Antimicrobial test (broth microdilution); assay type: cell-based, Enterococcus faecalis
Experimental: as §2

rat ileum smooth muscle = test: Rat ileum smooth muscle test; details: 10^−11 to 10^−6 M
Experimental: as §1

E. coli NCTC10418 = test: Antimicrobial test (broth microdilution); assay type: cell-based, Escherichia coli
Experimental: as §2

[3] = MHB, 5 × 10^5 CFU/ml, 37°C overnight, 550 nm

Substance: GLFDIVGKLLGGLGL-NH2 [Caeridin-a1]
- membrane permeabilisation of E. coli at MIC and MBC (E. coli): induced inner membrane permeabilisation within 30 min
- LDH release from HMEC-1 ([1]; 10 μM): approximately 10%
- LDH release from HMEC-1 ([1]; 100 μM): about 50%
- cytotoxicity to HMEC-1 cells ([1]; 100 μM, LDH release): significant cytotoxicity
- smooth muscle activity (rat bladder) [2]: did not show any smooth muscle activities
- haemolysis (horse erythrocytes): 18%
- MBC (S. aureus NCTC10788): 16 µM
- MIC (S. aureus NCTC10788; [3]): 8 µM
- MBC (E. faecalis NCTC12697): 64 µM
- MIC (E. faecalis NCTC12697; [3]): 32 µM
- smooth muscle activity (rat ileum) (rat ileum smooth muscle): did not show any smooth muscle activities
- MBC (E. coli NCTC10418): 64 µM
- MIC (E. coli NCTC10418; [3]): 32 µM
